Experiments:
p110α = molecular target: T1, p110α (Homo sapiens, UniProt P42336); assay: Biochemical PI3K inhibition assay, p110α
T1 construct: His-tag; made in house; host or cells: Sf9 insect cells (baculovirus)
Protocol: PIK3CD was generously provided by Novartis Pharmaceuticals. […] Sf9 cells were lysed in a buffer containing 50 mM sodium phosphate, pH 8.0, 400 mM NaCl, 5% glycerol, 1% Triton X-100, 10 mM 2-mercaptoethanol, 1 mM orthovanadate, 10 mM imidazole, and sonicated on ice for 1 minute. Proteins were purified by adding Ni-NTA Superflow beads (Qiagen, Valencia, CA, USA) to the lysate and subsequent rolling for 30 min at 4°C. Beads were washed twice with 50 mM phosphate buffer, pH 8.0, 0.5 M NaCl, 50 mM Imidazole, 2 mM DTT and eluted in the same buffer but with 200 mM imidazole. Purified PI3K's were mixed 1:1 with glycerol and stored at -20°C.
J-series inhibitors were dissolved, serial diluted in DMSO and deposited into 96 well plates at a final DMSO concentration of 1%. We used a novel assay to determine their potency and selectivity. […] Reactions were timed after the addition of 10 μM ATP with 40 μCi/ml γ-32P-ATP (PerkinElmer, Waltham, MA, USA) and 2 mM MgCl2 (all final concentrations). The reactions were terminated after two hours by the addition of 2 N HCl and the lipids extracted with 1:1 MetOH/Chloroform. Radio-labeled phosphatidyl-inositol-3-phosphate in the extracted organic fraction was quantified after the addition of Microscint O (PerkinElmer) using a TopCount 96 well plate scintillation counter (PerkinElmer). IC50 concentrations and inhibition curves were calculated using Prism 5 (GraphPad Software, La Jolla, CA).

p110β = molecular target: T2, p110β (Homo sapiens, UniProt P42338); assay: Biochemical PI3K inhibition assay, p110β
T2 construct: His-tag; made in house; host or cells: Sf9 insect cells (baculovirus)
Text: (§1) cDNA clones of PIK3CA, PIK3CB and PIK3CG were obtained from Origene (Rockville, MD, USA). PIK3CD was generously provided by Novartis Pharmaceuticals. The cDNA clones were sub-cloned into pFastBac His-Tag (Invitrogen, Carlsbad, CA, USA) and baculovirus clones were generated by the Bac-to-Bac expression system (Invitrogen). p110α, p110β and p110δ were co-expressed in Sf9 insect cells (Invitrogen) with a nSH2-iSH2 fragment of the regulatory subunit p85 comprising AA residues 322 to 600 [4]. p110γ was expressed without a regulatory subunit. Sf9 cells were lysed in a buffer containing 50 mM sodium phosphate, pH 8.0, 400 mM NaCl, 5% glycerol, 1% Triton X-100, 10 mM 2-mercaptoethanol, 1 mM orthovanadate, 10 mM imidazole, and sonicated on ice for 1 minute. Proteins were purified by adding Ni-NTA Superflow beads (Qiagen, Valencia, CA, USA) to the lysate and subsequent rolling for 30 min at 4°C. Beads were washed twice with 50 mM phosphate buffer, pH 8.0, 0.5 M NaCl, 50 mM Imidazole, 2 mM DTT and eluted in the same buffer but with 200 mM imidazole. Purified PI3K's were mixed 1:1 with glycerol and stored at -20°C.
(§2) J-series inhibitors were dissolved, serial diluted in DMSO and deposited into 96 well plates at a final DMSO concentration of 1%. We used a novel assay to determine their potency and selectivity. In brief, micelles of 2.5 μg L-a-Phosphatidylinositol and 2.5 μg 1,2-Diacyl-sn-glycero-3-phospho-L-serine were formed by sonication, mixed with the individual PI3K isoforms and added to the drug dilutions in a reaction buffer containing 10 mM HEPES, 25 mM NaCl, 0.125 μg/μl BSA, and 2 mM BME (final concentrations). Reactions were timed after the addition of 10 μM ATP with 40 μCi/ml γ-32P-ATP (PerkinElmer, Waltham, MA, USA) and 2 mM MgCl2 (all final concentrations). The reactions were terminated after two hours by the addition of 2 N HCl and the lipids extracted with 1:1 MetOH/Chloroform. Radio-labeled phosphatidyl-inositol-3-phosphate in the extracted organic fraction was quantified after the addition of Microscint O (PerkinElmer) using a TopCount 96 well plate scintillation counter (PerkinElmer). IC50 concentrations and inhibition curves were calculated using Prism 5 (GraphPad Software, La Jolla, CA).

mTOR = molecular target: T3, mTOR (Homo sapiens, UniProt P42345); assay: Panel of 273 kinases, mTOR; assay type: biochemical
T3 construct: purchased Millipore (KinaseProfiler service)
Protocol: The compounds were also tested for their capacity to inhibit two common mutant forms of PI3Kα – E545K and H1047R [2, 33]. None of the compounds discriminated between the wild-type (wt) and mutant forms of the enzyme (data not shown). Finally, we also tested one of the compounds (J124, chosen for reasons discussed later) against a panel of 273 kinases.

p110γ = molecular target: T4, p110γ (Homo sapiens, UniProt P48736); assay: Biochemical PI3K inhibition assay, p110γ
T4 construct: His-tag; made in house; host or cells: Sf9 insect cells (baculovirus)
Text: as §1, §2

TBK1 = molecular target: T5, TBK1 (Homo sapiens, UniProt Q9UHD2); assay: Millipore KinaseProfiler; assay type: biochemical; settings: read-out: % of control
T5 construct: purchased Millipore (KinaseProfiler service)
Text: (§3) Supplement oncotarget-01-339-s001.doc, table 1: Supplementary Table 1. Millipore KinaseProfiler excerpt | column: % of control

cSRC = molecular target: T6, cSRC (Homo sapiens, UniProt P12931); assay: Millipore KinaseProfiler; assay type: biochemical; settings: read-out: % of control
T6 construct: purchased Millipore (KinaseProfiler service)
Text: as §3

IRAK4 = molecular target: T7, IRAK4 (Homo sapiens, UniProt Q9NWZ3); assay: Millipore KinaseProfiler; assay type: biochemical; settings: read-out: % of control
T7 construct: purchased Millipore (KinaseProfiler service)
Text: as §3

CDK5/p35 = molecular target: T8, CDK5/p35 (Homo sapiens, UniProt Q00535); assay: Millipore KinaseProfiler; assay type: biochemical; settings: read-out: % of control
T8 construct: purchased Millipore (KinaseProfiler service)
Text: as §3

ACK1 = molecular target: T9, ACK1 (Homo sapiens, UniProt Q07912); assay: Millipore KinaseProfiler; assay type: biochemical; settings: read-out: % of control
T9 construct: purchased Millipore (KinaseProfiler service)
Text: as §3

PTK5 = molecular target: T10, PTK5 (Homo sapiens, UniProt P42685); assay: Millipore KinaseProfiler; assay type: biochemical; settings: read-out: % of control
T10 construct: purchased Millipore (KinaseProfiler service)
Text: as §3

Yes = molecular target: T11, Yes (Homo sapiens, UniProt P07947); assay: Millipore KinaseProfiler; assay type: biochemical; settings: read-out: % of control
T11 construct: purchased Millipore (KinaseProfiler service)
Text: as §3

Flt3 = molecular target: T12, Flt3 (Homo sapiens, UniProt P36888); assay: Millipore KinaseProfiler; assay type: biochemical; settings: read-out: % of control
T12 construct: purchased Millipore (KinaseProfiler service)
Text: as §3

Mer = molecular target: T13, Mer (Homo sapiens, UniProt Q12866); assay: Millipore KinaseProfiler; assay type: biochemical; settings: read-out: % of control
T13 construct: purchased Millipore (KinaseProfiler service)
Text: as §3

Ret = molecular target: T14, Ret (Homo sapiens, UniProt P07949); assay: Millipore KinaseProfiler; assay type: biochemical; settings: read-out: % of control
T14 construct: purchased Millipore (KinaseProfiler service)
Text: as §3

PKCθ = molecular target: T15, PKCθ (Homo sapiens, UniProt Q04759); assay: Millipore KinaseProfiler; assay type: biochemical; settings: read-out: % of control
T15 construct: purchased Millipore (KinaseProfiler service)
Text: as §3

LIMK1 = molecular target: T16, LIMK1 (Homo sapiens, UniProt P53667); assay: Millipore KinaseProfiler; assay type: biochemical; settings: read-out: % of control
T16 construct: purchased Millipore (KinaseProfiler service)
Text: as §3

p110δ = molecular target: T17, p110δ (Homo sapiens, UniProt O00329); assay: Biochemical PI3K inhibition assay, p110δ; settings: 10 μM ATP, two hours
T17 construct: His-tag; made in house; host or cells: Sf9 insect cells (baculovirus)
Text: as §1, §2

T1 sequence (P42336 whole entry): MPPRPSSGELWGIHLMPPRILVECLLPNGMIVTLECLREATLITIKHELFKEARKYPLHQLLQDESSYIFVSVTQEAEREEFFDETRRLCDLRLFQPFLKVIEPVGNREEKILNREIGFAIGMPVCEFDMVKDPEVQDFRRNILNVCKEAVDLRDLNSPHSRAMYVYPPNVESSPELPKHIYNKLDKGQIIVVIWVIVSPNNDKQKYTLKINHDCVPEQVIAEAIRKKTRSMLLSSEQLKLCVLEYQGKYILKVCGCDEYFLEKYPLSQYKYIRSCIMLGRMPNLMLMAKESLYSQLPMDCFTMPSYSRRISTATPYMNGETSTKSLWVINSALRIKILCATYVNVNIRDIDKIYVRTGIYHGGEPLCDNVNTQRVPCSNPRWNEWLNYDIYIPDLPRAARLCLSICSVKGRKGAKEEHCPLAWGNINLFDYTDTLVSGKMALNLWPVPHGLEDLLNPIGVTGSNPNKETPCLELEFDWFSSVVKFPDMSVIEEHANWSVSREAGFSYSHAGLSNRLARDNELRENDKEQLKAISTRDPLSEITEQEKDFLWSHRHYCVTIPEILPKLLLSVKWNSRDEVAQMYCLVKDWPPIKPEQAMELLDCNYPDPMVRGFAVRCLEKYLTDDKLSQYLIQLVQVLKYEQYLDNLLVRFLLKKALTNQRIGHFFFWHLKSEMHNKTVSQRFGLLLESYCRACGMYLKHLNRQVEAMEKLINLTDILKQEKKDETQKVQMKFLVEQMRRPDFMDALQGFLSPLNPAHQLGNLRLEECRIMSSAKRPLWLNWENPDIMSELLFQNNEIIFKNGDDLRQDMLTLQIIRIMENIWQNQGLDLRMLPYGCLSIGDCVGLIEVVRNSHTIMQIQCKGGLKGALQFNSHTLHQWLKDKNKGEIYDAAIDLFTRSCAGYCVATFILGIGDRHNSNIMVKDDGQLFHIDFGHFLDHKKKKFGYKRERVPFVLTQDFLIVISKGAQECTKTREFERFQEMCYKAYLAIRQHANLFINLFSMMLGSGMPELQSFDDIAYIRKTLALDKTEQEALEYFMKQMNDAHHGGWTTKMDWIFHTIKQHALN
T1 sequence (P27986 322-600 partner limits assumed): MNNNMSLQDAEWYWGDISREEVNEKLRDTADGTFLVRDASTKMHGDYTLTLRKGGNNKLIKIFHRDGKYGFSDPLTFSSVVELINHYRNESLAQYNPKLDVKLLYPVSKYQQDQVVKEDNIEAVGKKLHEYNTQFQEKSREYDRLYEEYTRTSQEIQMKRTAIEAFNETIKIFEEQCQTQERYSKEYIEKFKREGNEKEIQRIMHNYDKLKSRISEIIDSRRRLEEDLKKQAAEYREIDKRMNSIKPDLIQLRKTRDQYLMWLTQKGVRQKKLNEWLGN
T4 sequence (P48736 whole entry): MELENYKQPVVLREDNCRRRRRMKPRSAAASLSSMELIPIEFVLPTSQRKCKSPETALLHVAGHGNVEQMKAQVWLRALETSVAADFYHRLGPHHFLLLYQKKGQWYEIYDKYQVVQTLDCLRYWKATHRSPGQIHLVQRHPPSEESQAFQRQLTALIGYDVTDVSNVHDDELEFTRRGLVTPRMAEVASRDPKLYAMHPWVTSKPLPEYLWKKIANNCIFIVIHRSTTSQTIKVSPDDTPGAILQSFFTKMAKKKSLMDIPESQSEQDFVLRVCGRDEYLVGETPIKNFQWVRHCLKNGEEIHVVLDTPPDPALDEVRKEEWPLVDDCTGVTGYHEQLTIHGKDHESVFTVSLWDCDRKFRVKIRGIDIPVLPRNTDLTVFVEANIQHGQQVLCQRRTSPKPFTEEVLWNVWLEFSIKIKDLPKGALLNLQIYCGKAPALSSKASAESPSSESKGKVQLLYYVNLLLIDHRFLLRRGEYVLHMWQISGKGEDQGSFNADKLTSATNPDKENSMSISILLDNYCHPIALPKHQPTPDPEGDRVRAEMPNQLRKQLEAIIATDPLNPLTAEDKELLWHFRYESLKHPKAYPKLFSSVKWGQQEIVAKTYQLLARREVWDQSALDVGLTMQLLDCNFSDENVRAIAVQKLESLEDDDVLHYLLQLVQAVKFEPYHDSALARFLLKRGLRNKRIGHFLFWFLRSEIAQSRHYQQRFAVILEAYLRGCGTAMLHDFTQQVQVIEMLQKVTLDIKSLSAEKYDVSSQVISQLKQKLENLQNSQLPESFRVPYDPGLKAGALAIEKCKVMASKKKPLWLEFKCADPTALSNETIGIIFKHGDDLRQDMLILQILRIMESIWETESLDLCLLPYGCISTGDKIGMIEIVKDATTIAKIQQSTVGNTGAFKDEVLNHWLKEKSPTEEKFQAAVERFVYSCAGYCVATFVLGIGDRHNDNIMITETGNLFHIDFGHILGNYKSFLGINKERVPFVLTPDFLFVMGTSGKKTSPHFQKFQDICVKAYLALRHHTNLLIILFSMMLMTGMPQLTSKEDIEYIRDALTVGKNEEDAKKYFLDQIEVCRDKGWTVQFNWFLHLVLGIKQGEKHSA
T2 sequence (P42338 whole entry): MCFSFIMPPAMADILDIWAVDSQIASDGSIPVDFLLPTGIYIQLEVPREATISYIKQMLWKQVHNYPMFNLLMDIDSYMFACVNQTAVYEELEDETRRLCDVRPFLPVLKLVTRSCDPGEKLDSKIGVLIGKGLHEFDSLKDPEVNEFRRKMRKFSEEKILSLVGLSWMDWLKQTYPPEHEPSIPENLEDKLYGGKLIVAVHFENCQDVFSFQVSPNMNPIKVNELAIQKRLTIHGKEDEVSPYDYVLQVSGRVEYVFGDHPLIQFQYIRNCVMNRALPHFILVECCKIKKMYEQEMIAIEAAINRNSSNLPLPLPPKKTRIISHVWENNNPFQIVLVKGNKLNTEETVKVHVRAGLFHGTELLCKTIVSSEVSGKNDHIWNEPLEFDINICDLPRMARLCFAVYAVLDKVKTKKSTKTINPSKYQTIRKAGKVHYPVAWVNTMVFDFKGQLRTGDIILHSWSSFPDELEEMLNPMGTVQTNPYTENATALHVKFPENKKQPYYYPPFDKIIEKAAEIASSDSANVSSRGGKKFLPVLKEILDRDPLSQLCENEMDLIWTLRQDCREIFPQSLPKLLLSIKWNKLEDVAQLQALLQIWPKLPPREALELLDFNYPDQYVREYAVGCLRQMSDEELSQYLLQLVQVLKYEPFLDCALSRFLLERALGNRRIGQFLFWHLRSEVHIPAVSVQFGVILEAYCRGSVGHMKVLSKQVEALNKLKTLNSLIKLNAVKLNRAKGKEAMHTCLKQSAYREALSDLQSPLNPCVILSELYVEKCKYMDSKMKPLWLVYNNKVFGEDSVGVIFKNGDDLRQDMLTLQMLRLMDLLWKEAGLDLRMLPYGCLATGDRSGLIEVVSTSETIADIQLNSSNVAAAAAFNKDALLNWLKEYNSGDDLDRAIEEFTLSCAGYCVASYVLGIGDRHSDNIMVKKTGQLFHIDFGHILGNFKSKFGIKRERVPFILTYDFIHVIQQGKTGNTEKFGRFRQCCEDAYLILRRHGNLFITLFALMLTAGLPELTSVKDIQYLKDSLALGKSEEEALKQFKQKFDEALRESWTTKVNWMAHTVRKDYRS
T2 sequence (P27986 322-600 partner limits assumed): as the sequence (P27986 322-600 partner limits assumed) above
T9 sequence (Q07912 whole entry): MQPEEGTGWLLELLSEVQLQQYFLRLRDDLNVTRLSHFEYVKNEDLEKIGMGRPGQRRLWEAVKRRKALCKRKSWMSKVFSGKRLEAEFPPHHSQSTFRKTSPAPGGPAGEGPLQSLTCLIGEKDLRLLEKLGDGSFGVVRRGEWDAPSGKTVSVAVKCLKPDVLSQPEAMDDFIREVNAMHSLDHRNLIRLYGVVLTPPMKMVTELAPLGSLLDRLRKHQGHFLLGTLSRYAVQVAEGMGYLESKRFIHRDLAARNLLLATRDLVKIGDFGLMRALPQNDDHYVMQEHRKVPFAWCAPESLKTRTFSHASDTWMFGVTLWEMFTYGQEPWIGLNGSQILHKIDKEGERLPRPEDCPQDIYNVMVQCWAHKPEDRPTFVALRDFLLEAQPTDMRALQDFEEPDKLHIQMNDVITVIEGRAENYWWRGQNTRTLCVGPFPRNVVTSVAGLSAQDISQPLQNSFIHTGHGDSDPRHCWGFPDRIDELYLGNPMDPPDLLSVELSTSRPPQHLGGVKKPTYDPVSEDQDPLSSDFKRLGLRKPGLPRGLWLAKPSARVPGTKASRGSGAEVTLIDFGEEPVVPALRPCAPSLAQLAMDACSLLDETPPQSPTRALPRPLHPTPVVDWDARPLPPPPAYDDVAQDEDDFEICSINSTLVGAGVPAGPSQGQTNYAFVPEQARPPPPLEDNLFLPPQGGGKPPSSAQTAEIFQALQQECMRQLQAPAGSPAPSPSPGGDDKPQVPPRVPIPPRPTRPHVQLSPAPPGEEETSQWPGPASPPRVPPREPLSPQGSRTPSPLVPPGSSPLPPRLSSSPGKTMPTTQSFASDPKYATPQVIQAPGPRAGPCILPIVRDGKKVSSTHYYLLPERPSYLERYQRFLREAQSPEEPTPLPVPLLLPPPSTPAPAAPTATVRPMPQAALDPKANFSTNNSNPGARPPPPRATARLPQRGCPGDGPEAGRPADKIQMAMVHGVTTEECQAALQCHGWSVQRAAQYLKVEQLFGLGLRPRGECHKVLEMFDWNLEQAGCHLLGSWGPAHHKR
T7 sequence (Q9NWZ3 whole entry): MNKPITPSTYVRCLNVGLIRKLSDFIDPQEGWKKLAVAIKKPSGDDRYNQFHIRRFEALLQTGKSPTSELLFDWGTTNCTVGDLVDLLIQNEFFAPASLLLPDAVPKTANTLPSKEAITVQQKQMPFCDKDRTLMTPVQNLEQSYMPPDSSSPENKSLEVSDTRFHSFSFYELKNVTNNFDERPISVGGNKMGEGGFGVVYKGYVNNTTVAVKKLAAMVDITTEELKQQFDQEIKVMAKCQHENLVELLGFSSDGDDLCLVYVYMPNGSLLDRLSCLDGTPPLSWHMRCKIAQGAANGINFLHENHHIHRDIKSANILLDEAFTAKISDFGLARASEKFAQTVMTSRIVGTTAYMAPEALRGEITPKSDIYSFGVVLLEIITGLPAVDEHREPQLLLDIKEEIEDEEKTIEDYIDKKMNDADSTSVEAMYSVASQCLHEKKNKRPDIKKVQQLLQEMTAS

CCN(/N=C/c1cnc2ccc(Br)cn12)S(=O)(=O)c1cc([N+](=O)[O-])c(NC(=O)C(F)(F)F)cc1C [J124]
IC50 (p110α; 10 μM ATP, two hours): 0.011 µM | increase of inhibitory activity for PI3Kα (p110α; compared to J32): 1.4 fold | IC50 (p110β; 10 μM ATP, two hours): 0.27 µM | selectivity against PI3Kβ (p110β; relative to PI3Kα): > 20 fold | inhibition of mTOR with an IC50 of 11 nM or lower (mTOR): not mTOR | IC50 (p110γ; 10 μM ATP, two hours, no regulatory subunit): 0.38 µM | selectivity against PI3Kγ (p110γ; relative to PI3Kα): > 30 fold | remaining activity at 0.011 µM (TBK1): 46% | remaining activity at 0.011 µM (cSRC): 48% | remaining activity at 0.011 µM (IRAK4): 48% | remaining activity at 0.011 µM (CDK5/p35): 37% | remaining activity at 0.011 µM (ACK1): 30% | remaining activity at 0.011 µM (PTK5): 11% | remaining activity at 0.011 µM (Yes): 40% | remaining activity at 0.011 µM (Flt3): 10% | remaining activity at 0.011 µM (Mer): 33% | remaining activity at 0.011 µM (Ret): 49% | remaining activity at 0.011 µM (PKCθ): 35% | remaining activity at 0.011 µM (LIMK1): 36% | IC50 (p110δ): 0.16 µM

Reference: publication PMC3004370, “PI3Kα Inhibitors That Inhibit Metastasis” (Oncotarget, 2010)
